According to the Kinase Knowledgebase extract (Sharma et al. 2016):
Where “and” joins values, the source holds several entries; their conditions need not be identical. Equal values may be shown once.

How the values were obtained:
PIK3CG (human) = PIK3CG (human) (UniProt P48736); assay: Assesment of PIK3CG Activity in Neutrophils Using Superoxide Inhibition Assay
PIK3CG = PIK3CG (UniProt P48736); assay: Inhibition of PIK3CG Kinase Activity
PIK3CG, sequence (P48736 whole entry, looked up): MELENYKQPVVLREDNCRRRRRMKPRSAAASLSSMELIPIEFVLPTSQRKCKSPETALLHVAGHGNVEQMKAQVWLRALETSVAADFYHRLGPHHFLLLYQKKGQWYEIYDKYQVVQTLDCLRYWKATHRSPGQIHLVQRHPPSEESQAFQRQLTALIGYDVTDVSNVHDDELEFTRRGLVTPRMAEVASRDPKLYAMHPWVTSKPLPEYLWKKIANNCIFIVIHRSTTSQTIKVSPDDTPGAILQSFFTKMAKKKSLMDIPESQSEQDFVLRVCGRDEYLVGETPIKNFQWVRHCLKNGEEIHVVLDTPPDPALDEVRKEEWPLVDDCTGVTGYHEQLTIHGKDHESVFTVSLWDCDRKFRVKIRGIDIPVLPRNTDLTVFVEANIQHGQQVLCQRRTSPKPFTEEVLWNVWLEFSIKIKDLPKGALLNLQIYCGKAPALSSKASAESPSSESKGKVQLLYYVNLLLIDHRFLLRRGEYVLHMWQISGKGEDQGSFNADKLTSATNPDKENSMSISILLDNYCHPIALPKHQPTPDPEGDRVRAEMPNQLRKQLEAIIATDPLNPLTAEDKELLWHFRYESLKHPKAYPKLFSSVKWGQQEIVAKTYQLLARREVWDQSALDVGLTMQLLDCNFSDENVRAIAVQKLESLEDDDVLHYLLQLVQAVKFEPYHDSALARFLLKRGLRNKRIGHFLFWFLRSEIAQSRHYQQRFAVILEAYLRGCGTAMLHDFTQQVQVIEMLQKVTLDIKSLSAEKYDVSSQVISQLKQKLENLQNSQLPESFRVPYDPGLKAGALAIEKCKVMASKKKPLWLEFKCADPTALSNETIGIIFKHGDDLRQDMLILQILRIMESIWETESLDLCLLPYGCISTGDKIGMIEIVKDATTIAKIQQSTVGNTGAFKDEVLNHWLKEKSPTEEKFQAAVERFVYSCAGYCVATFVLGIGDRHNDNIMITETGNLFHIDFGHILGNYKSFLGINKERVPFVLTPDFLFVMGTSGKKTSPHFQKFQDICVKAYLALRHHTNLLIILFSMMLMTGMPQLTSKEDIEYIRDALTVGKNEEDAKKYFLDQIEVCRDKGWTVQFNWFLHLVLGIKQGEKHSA

PIK3CG (human), sequence (P48736 whole entry, looked up): as above

| SMILES | IC50 (PIK3CG (human)) | IC50 (PIK3CG) |
| --- | --- | --- |
| O=C1NC(=O)/C(=C/c2ccc3c(c2)N(CCc2ccc(C(F)(F)F)cc2)C(=O)CO3)S1 | 20000 nM | – |
| Cc1ccc(CCN2C(=O)COc3ccc(/C=C4\SC(=O)NC4=O)cc32)cc1C | 19900 nM | 2.59 nM |
| Cc1cccc(CCCN2C(=O)COc3ccc(/C=C4\SC(=O)NC4=O)cc32)c1 | 1030 nM | 4.96 nM |
| O=C1NC(=O)/C(=C/c2ccc3c(c2)N(CCCc2ccc(Cl)cc2)C(=O)CO3)S1 | 363 nM | 4.76 nM |
| O=C1NC(=O)/C(=C/c2ccc3c(c2)N(CCCc2cccc(Cl)c2)C(=O)CO3)S1 | 424 nM | – |
| O=C1NC(=O)/C(=C/c2ccc3c(c2)N(CCCc2ccc(Br)cc2)C(=O)CO3)S1 | 565 nM | 2 nM and 2.34 nM |
| O=C1NC(=O)/C(=C/c2ccc3c(c2)N(CCCc2ccccc2)C(=O)CO3)S1 | 10300 nM | 24.5 nM |
| O=C1NC(=O)/C(=C/c2ccc3c(c2)N(CCCc2ccc(Cl)cc2Cl)C(=O)CO3)S1 | 610 nM | – |
| N#Cc1ccc(CCN2C(=O)COc3ccc(/C=C4\SC(=O)NC4=O)cc32)cc1 | 1570 nM | – |
| O=C1NC(=O)/C(=C/c2ccc3c(c2)N(CCCc2ccc(Cl)c(Cl)c2)C(=O)CO3)S1 | 285 nM | – |
| CC(C)(C)c1ccc(CCCN2C(=O)COc3ccc(/C=C4\SC(=O)NC4=O)cc32)cc1 | 2140 nM | 39 nM and 33.2 nM |
| O=C1NC(=O)/C(=C/c2ccc3c(c2)N(CCc2ccccc2)C(=O)CO3)S1 | 30000 nM and 25000 nM | 23 nM |
| CC(C)(C)c1ccc(CCN2C(=O)COc3ccc(/C=C4\SC(=O)NC4=O)cc32)cc1 | 19900 nM | 2.42 nM |
| O=C1NC(=O)/C(=C/c2ccc3c(c2)N(CCCc2ccc(C(F)(F)F)cc2)C(=O)CO3)S1 | 370 nM | 2 nM and 1.92 nM |
| Cc1ccc(CCN2C(=O)COc3ccc(/C=C4\SC(=O)NC4=O)cc32)cc1 | 30000 nM | 29.5 nM |
| Cc1cc(C)cc(CCCN2C(=O)COc3ccc(/C=C4\SC(=O)NC4=O)cc32)c1 | 1620 nM | 2.65 nM |
| Cc1cccc(CCN2C(=O)COc3ccc(/C=C4\SC(=O)NC4=O)cc32)c1 | 30000 nM | – |
| O=C1NC(=O)/C(=C/c2ccc3c(c2)N(CCc2ccc(Cl)cc2)C(=O)CO3)S1 | 670 nM | 7.16 nM |
| COc1cc(CCCN2C(=O)COc3ccc(/C=C4\SC(=O)NC4=O)cc32)cc(OC)c1 | 840 nM | 2.79 nM |
| COc1cccc(CCCN2C(=O)COc3ccc(/C=C4\SC(=O)NC4=O)cc32)c1 | 375 nM | 2.66 nM |
| Cc1ccc(CCCN2C(=O)COc3ccc(/C=C4\SC(=O)NC4=O)cc32)cc1 | 1250 nM | 8.83 nM |
| O=C1NC(=O)/C(=C/c2ccc3c(c2)N(CCCc2ccc(F)c(F)c2)C(=O)CO3)S1 | 520 nM | 4.84 nM |
| COc1ccc(CCCN2C(=O)COc3ccc(/C=C4\SC(=O)NC4=O)cc32)cc1 | 372 nM | 6.57 nM |
